Structures can show the parent of a compound that is named as a salt.
Columns and labels:
Settings in all cases: 72 h
HepG2 [1] = assay: drug sensitivity score (DSS) for viability; higher = more toxic; extreme values may be limits of the assay
Calu-3 [2] = assay: as above
Vero E6 [3] = assay: as above
U2OS [4] = assay: as above
HepG2 [5] = assay: relative viability EC50 (midpoint between 100% and the lowest measured viability); higher = less toxic
Caco-2 [6] = assay: drug sensitivity score (DSS) for viability; higher = more toxic; extreme values may be limits of the assay
HepG2 [7] = assay: cell viability relative to DMSO; higher = less toxic
Calu-3 [8] = assay: as above
Caco-2 [9] = assay: as above
Vero E6 [10] = assay: as above
U2OS [11] = assay: as above
Vero E6 [12] = assay: relative viability EC50 (midpoint between 100% and the lowest measured viability); higher = less toxic
U2OS [13] = assay: as above
Caco-2 [14] = assay: as above

Row | SMILES | drug sensitivity score (HepG2 [1]) | drug sensitivity score (Calu-3 [2]) | drug sensitivity score (Vero E6 [3]) | drug sensitivity score (U2OS [4]) | relative viability EC50 (HepG2 [5]) [µM] | drug sensitivity score (Caco-2 [6]) | cell viability (HepG2 [7]; 1 nM) [%] | cell viability (HepG2 [7]; 10 nM) [%] | cell viability (HepG2 [7]; 100 nM) [%] | cell viability (HepG2 [7]; 1000 nM) [%] | cell viability (HepG2 [7]; 10000 nM) [%] | cell viability (Calu-3 [8]; 1 nM) [%] | cell viability (Calu-3 [8]; 10 nM) [%] | cell viability (Calu-3 [8]; 100 nM) [%] | cell viability (Calu-3 [8]; 1000 nM) [%] | cell viability (Calu-3 [8]; 10000 nM) [%] | cell viability (Caco-2 [9]; 1 nM) [%] | cell viability (Caco-2 [9]; 10 nM) [%] | cell viability (Caco-2 [9]; 100 nM) [%] | cell viability (Caco-2 [9]; 1000 nM) [%] | cell viability (Caco-2 [9]; 10000 nM) [%] | cell viability (Vero E6 [10]; 1 nM) [%] | cell viability (Vero E6 [10]; 10 nM) [%] | cell viability (Vero E6 [10]; 100 nM) [%] | cell viability (Vero E6 [10]; 1000 nM) [%] | cell viability (Vero E6 [10]; 10000 nM) [%] | cell viability (U2OS [11]; 1 nM) [%] | cell viability (U2OS [11]; 10 nM) [%] | cell viability (U2OS [11]; 100 nM) [%] | cell viability (U2OS [11]; 1000 nM) [%] | cell viability (U2OS [11]; 10000 nM) [%] | relative viability EC50 (Vero E6 [12]) [µM] | relative viability EC50 (U2OS [13]) [µM] | relative viability EC50 (Caco-2 [14]) [µM]
1 | CC1(C)S[C@@H]2[C@H](NC(=O)[C@H](N)c3ccccc3)C(=O)N2[C@H]1C(=O)O [ampicillin] | 0 | 0 | 0 | 0 |  |  |  |  |  |  |  |  |  |  |  |  |  |  |  |  |  |  |  |  |  |  |  |  |  |  |  |  |  | 
2 | O=C(O)C(=O)O.[NH-][C@@H]1CCCC[C@H]1[NH-].[Pt+2] [oxaliplatin] | 6 | 0 | 4.8 | 0.1 |  |  |  |  |  |  |  |  |  |  |  |  |  |  |  |  |  |  |  |  |  |  |  |  |  |  |  |  |  | 
3 | C/C=C(/C)C(=O)O[C@H]1[C@H](OC(C)=O)[C@@]2(CO)C(CC1(C)C)C1=CCC3[C@@]4(C)CCC(O[C@@H]5O[C@H](C(=O)O)[C@@H](O[C@@H]6O[C@H](CO)[C@@H](O)[C@H](O)[C@H]6O)[C@H](O)[C@H]5O[C@@H]5O[C@H](CO)[C@@H](O)[C@H](O)[C@H]5O)[C@](C)(CO)C4CC[C@@]3(C)[C@]1(C)C[C@H]2O.C/C=C(\C)C(=O)O[C@H]1[C@H](OC(C)=O)[C@@]2(CO)C(CC1(C)C)C1=CCC3[C@@]4(C)CCC(O[C@@H]5O[C@H](C(=O)O)[C@@H](O[C@@H]6O[C@H](CO)[C@@H](O)[C@H](O)[C@H]6O)[C@H](O)[C@H]5O[C@@H]5O[C@H](CO)[C@@H](O)[C@H](O)[C@H]5O)[C@](C)(CO)C4CC[C@@]3(C)[C@]1(C)C[C@H]2O (some centres not stated) [escin] | 3.8 | 0 | 4.1 | 1.5 |  |  |  |  |  |  |  |  |  |  |  |  |  |  |  |  |  |  |  |  |  |  |  |  |  |  |  |  |  | 
4 | Nc1nc(Cl)nc2c1ncn2[C@@H]1O[C@H](CO)[C@@H](O)[C@@H]1F [clofarabine] | 14.1 | 6.8 | 4 | 4 | 0.192 | 2.8 | 94.1 | 100 | 89.2 | 33.3 | 39.3 | 91.4 | 106 | 96.2 | 64.8 | 54.6 | 90.2 | 102 | 88.8 | 85.9 | 71.5 | 96.2 | 91.5 | 96.6 | 87.8 | 55.9 | 99.9 | 101 | 105 | 79.7 | 65.5 |  |  | 
5 | Oc1cccc(Nc2ncc(F)c(Nc3cccc(O)c3)n2)c1 [R112] | 4.4 | 1.4 | 3 | 4 | 2.72 | 2.7 | 106 | 102 | 107 | 96.1 | 30.9 | 92.2 | 100 | 92.6 | 92.6 | 74.8 | 103 | 107 | 99.1 | 94.7 | 62.1 | 103 | 102 | 99.9 | 99 | 46.6 | 97.6 | 101 | 95.6 | 98.5 | 30.2 | 3.03 | 3.01 | 
6 | Nc1nc2cc(-c3ccc4ncc(C(=O)N5CCOCC5)n4c3)ccc2o1 [MLN1117] | 2.9 | 2.2 | 0.5 | 1 |  | 3 | 98.1 | 101 | 102 | 96.3 | 54.5 | 94.2 | 102 | 104 | 96.8 | 64.7 | 107 | 101 | 107 | 89.9 | 66.6 | 104 | 106 | 106 | 95.1 | 85.8 | 96.4 | 95.2 | 106 | 91.2 | 84.3 | > 10 | > 10 | 
7 | CN(C)[C@@H]1C(O)=C(C(N)=O)C(=O)[C@@]2(O)C(O)=C3C(=O)c4c(O)ccc(Cl)c4[C@@](C)(O)[C@H]3C[C@@H]12 [CHLORTETRACYCLINE HYDROCHLORIDE] | 0 | 0 | 0 | 0 |  |  |  |  |  |  |  |  |  |  |  |  |  |  |  |  |  |  |  |  |  |  |  |  |  |  |  |  |  | 
8 | Clc1ccc2nsnc2c1NC1=NCCN1 [tizanidine] | 0 | 0 | 0 | 0 |  |  |  |  |  |  |  |  |  |  |  |  |  |  |  |  |  |  |  |  |  |  |  |  |  |  |  |  |  | 
9 | CCNC(=O)[C@@H]1CCCN1C(=O)[C@H](CCCNC(=N)N)NC(=O)[C@H](CC(C)C)NC(=O)[C@@H](C)NC(=O)[C@H](Cc1ccc(O)cc1)NC(=O)[C@H](CO)NC(=O)[C@H](Cc1c[nH]c2ccccc12)NC(=O)[C@H](Cc1cnc[nH]1)NC(=O)[C@@H]1CCC(=O)N1 [alarelin] | 0 |  | 0 |  | > 10 | 0 | 97.8 | 103 | 101 | 92 | 93.7 |  |  |  |  |  | 116 | 100 | 86.3 | 118 | 102 | 109 | 106 | 104 | 96.9 | 102 |  |  |  |  |  | > 10 |  | > 10
10 | CN(C)c1ccc2nc3ccc(=[N+](C)C)cc-3sc2c1 [methylene-blue] | 9.2 | 6.1 | 5.1 | 3 |  |  |  |  |  |  |  |  |  |  |  |  |  |  |  |  |  |  |  |  |  |  |  |  |  |  |  |  |  | 
11 | CC(=O)OCC(=O)[C@@]1(O)[C@@H](C)C[C@H]2[C@@H]3CCC4=CC(=O)C=C[C@]4(C)[C@@]3(F)[C@@H](O)C[C@@]21C [betamethasone-acetate] | 0 | 0 | 0 | 0 |  |  |  |  |  |  |  |  |  |  |  |  |  |  |  |  |  |  |  |  |  |  |  |  |  |  |  |  |  | 
12 | Nc1cc2c3ccccc3ccc2c2ccccc12 [6-aminochrysene] | 3 | 0 | 0.2 | 4.4 |  |  |  |  |  |  |  |  |  |  |  |  |  |  |  |  |  |  |  |  |  |  |  |  |  |  |  |  |  | 
13 | Cc1cccc(-c2[nH]c(C(C)(C)C)nc2-c2ccc3c(c2)OCO3)n1 | 9.1 | 1.1 | 0.9 | 2.1 | 1.52 | 8.2 | 94.6 | 102 | 101 | 75.2 | 4.5 | 102 | 95.2 | 107 | 103 | 70.3 | 95.4 | 94.3 | 98.3 | 77.1 | 15 | 104 | 101 | 107 | 96.2 | 81.7 | 98.8 | 98.6 | 90.6 | 95.4 | 69.2 | > 10 |  | 1.49
14 | C[C@]12CC[C@@H]3c4ccc(O)cc4CC[C@H]3[C@@H]1CC[C@@H]2O [estradiol] | 0 | 0 | 0 | 0 |  |  |  |  |  |  |  |  |  |  |  |  |  |  |  |  |  |  |  |  |  |  |  |  |  |  |  |  |  | 
15 | N#Cc1ccc(COC[C@H]2O[C@@H](n3c(NCc4ccc(Cl)c(Cl)c4)nc4c(N)ncnc43)[C@H](O)[C@@H]2O)cc1 | 7.2 | 4.5 | 0 | 2 | 1.66 | 2.3 | 94.2 | 93.4 | 101 | 82.5 | 20.4 | 96.9 | 93.3 | 99.6 | 86.2 | 52.8 | 94.5 | 98.9 | 91.8 | 101 | 52.8 | 101 | 97.8 | 106 | 99.9 | 99.4 | 95.6 | 97.9 | 93.7 | 97.4 | 64.9 | > 10 |  | 
16 | C=C1/C(=C\C=C2/CCC[C@]3(C)[C@@H]([C@H](C)CC[C@@H](O)C(C)C)CC[C@@H]23)C[C@@H](O)C[C@@H]1O [tacalcitol] | 0 | 0 | 1.9 | 0.3 |  |  |  |  |  |  |  |  |  |  |  |  |  |  |  |  |  |  |  |  |  |  |  |  |  |  |  |  |  | 
